The values below come from ChEMBL document CHEMBL5046271, “Design, Synthesis, and Biological Evaluation of 2-Formyl Tetrahydronaphthyridine Urea Derivatives as New Selective Covalently Reversible FGFR4 Inhibitors” (J Med Chem, 2022).

The target in test [1] is Fibroblast growth factor receptor 3 (Homo sapiens, UniProt P22607). In words: Inhibition of FGFR3 (unknown origin) using Tyr 04 peptide substrate measured after 2 hrs by FRET assay.
In test [2] the target is Fibroblast growth factor receptor 1 (Homo sapiens, UniProt P11362). In words: Inhibition of FGFR1 (unknown origin) using Tyr 04 peptide substrate measured after 2 hrs by FRET assay.
For test [3], the target named is Fibroblast growth factor receptor 2 (Homo sapiens, UniProt P21802). Nature of the test: Inhibition of FGFR2 (unknown origin) using Tyr 04 peptide substrate measured after 2 hrs by FRET assay.
The subject of test [4] is Huh-7. In words: Cytotoxicity against human Huh-7 cells harboring FGF19/FGFR4 assessed as inhibition of cell growth.
The test system of test [5] is Hep 3B2. In words: Cytotoxicity against human Hep 3B2.1-7 cells harboring FGF19/FGFR4 assessed as inhibition of cell growth. The settings on record: Hep3B.
Test [6] deals with MDA-MB-453. In words: Cytotoxicity against human MDA-MB-453 cells harboring FGF19/FGFR4 assessed as inhibition of cell growth.
In test [7] the test system is NCI-H1581. Nature of the test: Cytotoxicity against human NCI-H1581 cells harboring FGF19/FGFR4 assessed as inhibition of cell growth.

Molecules are shown by their SMILES.

Fibroblast growth factor receptor 1, sequence (P11362 whole entry): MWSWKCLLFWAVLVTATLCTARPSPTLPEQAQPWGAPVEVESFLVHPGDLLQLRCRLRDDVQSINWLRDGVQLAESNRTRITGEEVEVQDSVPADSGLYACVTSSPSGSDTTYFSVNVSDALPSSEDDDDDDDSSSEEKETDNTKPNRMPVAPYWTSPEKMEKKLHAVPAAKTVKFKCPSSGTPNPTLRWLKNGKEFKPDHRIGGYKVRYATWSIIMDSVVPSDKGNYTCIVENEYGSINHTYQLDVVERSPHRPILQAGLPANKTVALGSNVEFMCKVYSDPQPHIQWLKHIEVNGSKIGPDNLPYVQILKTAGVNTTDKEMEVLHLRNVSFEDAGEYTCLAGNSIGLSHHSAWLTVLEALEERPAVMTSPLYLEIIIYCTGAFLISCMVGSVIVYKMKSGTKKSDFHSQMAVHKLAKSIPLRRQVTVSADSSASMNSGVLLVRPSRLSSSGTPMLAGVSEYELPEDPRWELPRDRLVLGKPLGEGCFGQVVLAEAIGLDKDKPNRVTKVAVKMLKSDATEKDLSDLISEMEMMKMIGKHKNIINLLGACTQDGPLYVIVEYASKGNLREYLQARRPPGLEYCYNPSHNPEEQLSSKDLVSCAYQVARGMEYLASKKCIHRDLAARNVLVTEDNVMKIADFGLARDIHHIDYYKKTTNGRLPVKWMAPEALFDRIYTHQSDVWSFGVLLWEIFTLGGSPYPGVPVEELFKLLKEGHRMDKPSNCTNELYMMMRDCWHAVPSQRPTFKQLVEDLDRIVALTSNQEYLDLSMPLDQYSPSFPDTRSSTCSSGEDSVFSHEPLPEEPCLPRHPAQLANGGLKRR
Fibroblast growth factor receptor 3, sequence (P22607 whole entry): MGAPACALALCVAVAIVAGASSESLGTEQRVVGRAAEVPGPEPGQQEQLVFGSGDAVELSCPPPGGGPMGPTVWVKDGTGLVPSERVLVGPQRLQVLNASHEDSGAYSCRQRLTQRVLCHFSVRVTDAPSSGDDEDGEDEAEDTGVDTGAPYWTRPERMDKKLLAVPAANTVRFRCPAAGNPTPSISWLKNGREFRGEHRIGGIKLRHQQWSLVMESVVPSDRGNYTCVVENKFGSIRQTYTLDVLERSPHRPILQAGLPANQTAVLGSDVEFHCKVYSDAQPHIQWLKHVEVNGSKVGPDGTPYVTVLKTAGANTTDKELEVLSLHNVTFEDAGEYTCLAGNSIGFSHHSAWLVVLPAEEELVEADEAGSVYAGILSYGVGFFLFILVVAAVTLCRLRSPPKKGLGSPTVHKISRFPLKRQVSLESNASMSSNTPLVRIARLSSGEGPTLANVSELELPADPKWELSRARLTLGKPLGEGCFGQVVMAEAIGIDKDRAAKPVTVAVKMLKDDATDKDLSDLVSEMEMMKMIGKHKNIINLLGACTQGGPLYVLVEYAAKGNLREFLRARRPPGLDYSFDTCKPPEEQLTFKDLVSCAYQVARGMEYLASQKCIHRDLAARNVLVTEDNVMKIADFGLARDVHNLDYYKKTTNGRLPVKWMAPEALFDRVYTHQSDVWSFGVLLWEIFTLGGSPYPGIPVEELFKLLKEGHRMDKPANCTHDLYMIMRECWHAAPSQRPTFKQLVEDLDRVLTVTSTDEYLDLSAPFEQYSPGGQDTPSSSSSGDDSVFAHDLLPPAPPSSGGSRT
Fibroblast growth factor receptor 2, sequence (P21802 whole entry): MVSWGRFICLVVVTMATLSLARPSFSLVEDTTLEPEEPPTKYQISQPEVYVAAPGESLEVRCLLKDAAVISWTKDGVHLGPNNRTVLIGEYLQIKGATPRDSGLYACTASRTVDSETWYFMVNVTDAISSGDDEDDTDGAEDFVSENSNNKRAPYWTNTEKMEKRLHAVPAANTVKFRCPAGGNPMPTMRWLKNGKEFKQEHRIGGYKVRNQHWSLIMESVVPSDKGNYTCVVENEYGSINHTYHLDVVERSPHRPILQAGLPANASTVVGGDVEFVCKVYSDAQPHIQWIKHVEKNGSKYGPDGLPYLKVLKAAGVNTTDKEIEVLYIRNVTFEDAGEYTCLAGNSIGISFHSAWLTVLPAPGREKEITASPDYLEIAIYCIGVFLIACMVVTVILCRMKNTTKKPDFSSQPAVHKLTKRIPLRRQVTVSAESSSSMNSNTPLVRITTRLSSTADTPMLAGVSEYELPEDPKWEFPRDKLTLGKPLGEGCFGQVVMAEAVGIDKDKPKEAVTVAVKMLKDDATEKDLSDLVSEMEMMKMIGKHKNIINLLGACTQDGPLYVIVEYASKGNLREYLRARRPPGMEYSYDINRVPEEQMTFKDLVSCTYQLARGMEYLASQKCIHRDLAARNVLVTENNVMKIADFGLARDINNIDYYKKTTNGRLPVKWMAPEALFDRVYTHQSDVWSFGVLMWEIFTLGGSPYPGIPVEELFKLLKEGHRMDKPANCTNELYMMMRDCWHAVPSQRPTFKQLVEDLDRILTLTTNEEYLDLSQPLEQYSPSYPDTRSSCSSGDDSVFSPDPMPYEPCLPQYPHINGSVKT

`COc1cccc(CCc2cnc(NC(=O)N3CCCc4ccc(C=O)nc43)cc2OC(C)C)c1`: the IC50 in test [1], in test [2] and in test [3] was over 10 µM each time.
For the molecule `COc1cc(CCc2cnc(NC(=O)N3CCCc4cc(CN5CCN(C)CC5=O)c(C=O)nc43)cc2OC(C)C)cc(OC)c1`, the IC50 in test [4] was 0.0149 µM; in test [1], over 10 µM; in test [2], over 10 µM; in test [5] it was 1.45 µM; in test [6], 2.26 µM; in test [7], over 3 µM. This molecule gave an IC50 in test [3] of over 10 µM.
`CC(C)Oc1cc(NC(=O)N2CCCc3ccc(C=O)nc32)ncc1C#Cc1ccccn1`: the IC50 in test [1], in test [2] and in test [3] was over 10 µM in each case.
Regarding `COCCNc1cc(NC(=O)N2CCCc3ccc(C=O)nc32)ncc1C#Cc1cccnc1`, the IC50 in test [1], in test [2] and in test [3] was over 10 µM each time.
Consider `O=Cc1ccc2c(n1)N(C(=O)Nc1cc(NC3CC3)c(C#Cc3ccccn3)cn1)CCC2`, for which the IC50 in test [1], in test [2] and in test [3] was over 10 µM throughout.
As for `COC[C@H](C)Nc1cc(NC(=O)N2CCCc3ccc(C=O)nc32)ncc1C#Cc1cccnc1`, the IC50 in test [1], in test [2] and in test [3] was over 10 µM in each case.
For `COCCNc1cc(NC(=O)N2CCCc3cc(CN4CCN(C)CC4=O)c(C=O)nc32)ncc1C#N` [FGF401], the concentration for half-maximal inhibition (IC50) is 0.0089 µM in test [4], 0.21 µM in test [5], 0.92 µM in test [6] and over 3 µM in test [7].
Take `C=CC(=O)Nc1cccc(C)c1Nc1ncc2cc(-c3c(Cl)c(OC)cc(OC)c3Cl)ccc2n1`: the IC50 in test [1] was over 10 µM; in test [2], over 10 µM; in test [5] it was 0.55 µM; in test [6], 0.12 µM; in test [7], over 43.3 µM; in test [3] it was over 10 µM.
With `COC[C@@H](C)Nc1cc(NC(=O)N2CCCc3ccc(C=O)nc32)ncc1C#Cc1cccnc1`, the IC50 in test [1], in test [2] and in test [3] was over 10 µM each time.
Regarding `COc1cc(C#Cc2cnc(NC(=O)N3CCCc4ccc(C=O)nc43)cc2OC(C)C)cc(OC)c1`, the IC50 in test [1], in test [2] and in test [3] was over 10 µM each time.
Consider `CC(C)Oc1cc(NC(=O)N2CCCc3cc(CN4CCN(C)CC4=O)c(C=O)nc32)ncc1C#Cc1ccccn1`, for which the half-inhibitory concentration (IC50) is 0.00624 µM in test [4]; over 10 µM in test [1]; over 10 µM in test [2]; 0.658 µM in test [5]; 1.33 µM in test [6]; over 3 µM in test [7]. This molecule also displayed an IC50 in test [3] of over 10 µM.
Consider `O=Cc1ccc2c(n1)N(C(=O)Nc1cc(F)c(C#Cc3cccnc3)cn1)CCC2`, for which the IC50 in test [1], in test [2] and in test [3] was over 10 µM throughout.
For the molecule `O=Cc1ccc2c(n1)N(C(=O)Nc1cc(NC3CCCC3)c(C#Cc3ccccn3)cn1)CCC2`, the IC50 in test [1], in test [2] and in test [3] was over 10 µM throughout.
Consider `CC(C)Oc1cc(NC(=O)N2CCCc3ccc(C=O)nc32)ncc1C#Cc1cccnc1`, for which the IC50 in test [1], in test [2] and in test [3] was over 10 µM throughout.
In the case of `CC(C)Oc1cc(NC(=O)N2CCCc3ccc(C=O)nc32)ncc1C#Cc1ccc(C#N)cc1`, the 50% inhibitory concentration (IC50) in test [1], in test [2] and in test [3] was over 10 µM throughout.
Regarding `COc1cc(CCc2cnc(NC(=O)N3CCCc4ccc(C=O)nc43)cc2OC(C)C)cc(OC)c1`, the IC50 in test [1], in test [2] and in test [3] was over 10 µM each time.
For the molecule `COc1cc(OC)cc(-c2cnc(NC(=O)N3CCCc4ccc(C=O)nc43)cc2OC(C)C)c1`, the IC50 in test [1], in test [2] and in test [3] was over 10 µM throughout.
For the molecule `CC(C)Oc1cc(NC(=O)N2CCCc3ccc(C=O)nc32)ncc1C#Cc1cncn1C`, the IC50 in test [1], in test [2] and in test [3] was over 10 µM throughout.
`COCCOc1cc(NC(=O)N2CCCc3ccc(C=O)nc32)ncc1C#Cc1ccccn1`: the IC50 in test [1], in test [2] and in test [3] was over 10 µM throughout.
Turning to `COCCOc1cc(NC(=O)N2CCCc3ccc(C=O)nc32)ncc1C#Cc1cccnc1`, the concentration for half-maximal inhibition (IC50) in test [1], in test [2] and in test [3] was over 10 µM each time.
For the molecule `CC(C)Oc1cc(NC(=O)N2CCCc3ccc(C=O)nc32)ncc1C#Cc1cccc(C#N)c1`, the IC50 in test [1], in test [2] and in test [3] was over 10 µM in each case.
Take `CC(C)Oc1cc(NC(=O)N2CCCc3ccc(C=O)nc32)ncc1C#Cc1ccccc1`: the IC50 in test [1], in test [2] and in test [3] was over 10 µM in each case.
Turning to `COc1cccc(C#Cc2cnc(NC(=O)N3CCCc4ccc(C=O)nc43)cc2OC(C)C)c1`, the IC50 in test [1], in test [2] and in test [3] was over 10 µM throughout.
Regarding `CC(C)Oc1cc(NC(=O)N2CCCc3ccc(C=O)nc32)ncc1C#Cc1cncnc1`, the half-inhibitory concentration (IC50) in test [1], in test [2] and in test [3] was over 10 µM each time.
As for `CC(C)CNc1cc(NC(=O)N2CCCc3ccc(C=O)nc32)ncc1C#Cc1ccccn1`, the half-inhibitory concentration (IC50) in test [1], in test [2] and in test [3] was over 10 µM in each case.
As for `CC(C)Oc1cc(NC(=O)N2CCCc3ccc(C=O)nc32)ncc1C#Cc1cnccn1`, the IC50 in test [1], in test [2] and in test [3] was over 10 µM each time.
Consider `O=Cc1ccc2c(n1)N(C(=O)Nc1cc(F)c(C#Cc3ccccn3)cn1)CCC2`, for which the IC50 in test [1], in test [2] and in test [3] was over 10 µM each time.
As to `COc1cc(C#Cc2cnc(NC(=O)N3CCCc4cc(CN5CCN(C)CC5=O)c(C=O)nc43)cc2OC(C)C)cc(OC)c1`, the IC50 in test [4] is 0.0658 µM; in test [1] it was over 10 µM; in test [2], over 10 µM; in test [5] it was 1.34 µM; in test [6], 0.466 µM; in test [7], over 3 µM. In addition, in test [3], the IC50 is over 10 µM.
Turning to `COc1cc(OC)c(Cl)c(C#Cc2cnc(NC(=O)N3CCCc4ccc(C=O)nc43)cc2OC(C)C)c1Cl`, the IC50 in test [1], in test [2] and in test [3] was over 10 µM in each case.
Turning to `COCCNc1cc(NC(=O)N2CCCc3ccc(C=O)nc32)ncc1C#Cc1ccccn1`, the IC50 in test [1], in test [2] and in test [3] was over 10 µM in each case.
In the case of `COCCNc1cc(NC(=O)N2CCCc3ccc(C=O)nc32)ncc1C#N`, the IC50 in test [1], in test [2] and in test [3] was over 10 µM throughout.
`CC(C)Oc1cc(NC(=O)N2CCCc3ccc(C=O)nc32)ncc1C#Cc1ccncc1`: the IC50 in test [1], in test [2] and in test [3] was over 10 µM throughout.
